{"source": "patent US11254640B2", "about": "“N-substituted indoles and other heterocycles for treating brain disorders” (The Regents of the University of California, priority 2019, dated 2022)", "key": {"cortical neurons": {"test_system": "cortical neurons", "experiment": "Dendritogenesis assay, Sholl analysis", "format": "cell-based, rat", "settings": "for Emax at 10 µM: Rattus norvegicus, Cortical neurone, Nmax with vehicle (DMSO) = 0% and ketamine = 100%, read-out: % efficacy in sholls; for psychoplastogenic efficacy and potency, concentration-response (Nmax): concentrations ranging from 10 μM to 10 pM (FIG. 6)", "summary_of_the_method": "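Rat cortical neurons (timed-pregnant Sprague Dawley) were treated at DIV3 with compound at 10 μM unless noted (0.1% DMSO) for 1 h, washed out, grown 71 h more. Fixed, MAP2-immunostained, imaged; Sholl Nmax, with % efficacy scaled to DMSO (0%) and ketamine (100%).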"}, "rats": {"test_system": "rats", "settings": "rats trained to discriminate DOM from saline, cited from earlier work"}, "C57/BL6J mice": {"test_system": "C57/BL6J mice", "experiment": "Forced swim test (FST)", "format": "in vivo, mouse", "settings": "24 h after drug administration; i.p., compounds 20 mg/kg, ketamine 3 mg/kg", "protocol": "Forced Swim Test. As increased cortical structural plasticity in the anterior parts of the brain mediates the sustained (>24 h) antidepressant-like effects of ketamine and play a role in the therapeutic effects of 5-HT2A agonists, the impact of IsoDMT analogs on forced swim test (FST) behavior (FIG. 14A and FIG. 14B) was evaluated. First, a pretest was used to induce a depressive phenotype. Compounds were administered 24 h after the pre-test, and the FST was performed 24 h and 7 d post drug administration.\nForced Swim Test (FST). Male C57/BL6J mice (9-10 weeks old at time of experiment) were obtained from the Jackson Lab and housed 4-5 mice/cage in a UCD vivarium following an IACUC approved protocol. After 1 week in the vivarium each mouse was handled for approximately 1 minute by a experimenter for 3 consecutive days leading up to the first FST. […] Immobility scores for all mice were determined after the pre-test and mice were randomly assigned to treatment groups to generate groups with similar average immobility scores to be used for the following two FST sessions. […] Experiments were video-recorded and manually scored offline. Immobility time—defined as passive floating or remaining motionless with no activity other than that needed to keep the mouse's head above water—was scored for the last 4 min of the 6 min trial."}}, "note": "Where two headings read alike, the source gives them in different places.", "data": [{"smiles": "COc1cccc2c1ccn2CCN(C)C.O=C(O)/C=C/C(=O)O", "note": "[Example 3, 2-(4-methoxy-1H-indol-1-yl)-N,N-dimethylethan-1-amine]", "values": [{"measurement": "Emax at 10 µM", "setting": "cortical neurons; 10 μM", "value": 26, "unit": "%"}]}, {"smiles": "COc1ccc2c(ccn2CCN(C)C)c1.O=C(O)/C=C/C(=O)O", "note": "[Example 4, 2-(5-methoxy-1H-indol-1-yl)-N,N-dimethylethan-1-amine]", "values": [{"measurement": "Emax at 10 µM", "setting": "cortical neurons; 10 μM", "value": 65, "unit": "%"}, {"measurement": "psychoplastogenic efficacy and potency, concentration-response (Nmax)", "setting": "cortical neurons", "value": "exceptional psychoplastogen"}, {"measurement": "substitution for hallucinogenic training drug (DOM) in drug discrimination", "setting": "rats", "value": "low hallucinogenic potential"}, {"measurement": "substitution for hallucinogenic training drug (DOM) in drug discrimination", "setting": "rats; listed as 5-MeO-isoDMT", "value": "does not"}]}, {"smiles": "COc1ccc2ccn(CCN(C)C)c2c1", "note": "[Example 5, 2-(6-methoxy-1H-indol-1-yl)-N,N-dimethylethan-1-amine]", "values": [{"measurement": "Emax at 10 µM", "setting": "cortical neurons; 10 μM", "value": 95, "unit": "%"}, {"measurement": "psychoplastogenic efficacy and potency, concentration-response (Nmax)", "setting": "cortical neurons", "value": "comparable maximum efficacies and had similar potencies as isosteric DMTs (1 and 28)"}, {"measurement": "dendritic arbor complexity / neuronal growth (Nmax of Sholl plots)", "setting": "cortical neurons; cortical neurons, 10 μM", "value": "performed identically to 28 and 29"}, {"measurement": "substitution for hallucinogenic training drug (DOM) in drug discrimination", "setting": "rats", "value": "substitutes"}]}, {"smiles": "COc1cccc2ccn(CCN(C)C)c12.O=C(O)/C=C/C(=O)O", "note": "[Example 6, 2-(7-methoxy-1H-indol-1-yl)-N,N-dimethylethan-1-amine]", "values": [{"measurement": "Emax at 10 µM", "setting": "cortical neurons; 10 μM", "value": 92, "unit": "%"}]}, {"smiles": "COc1ccc2c(ccn2C[C@@H](C)N(C)C)c1", "note": "[Example 59, (R)-1-(5-methoxy-1H-indol-1-yl)-N,N-dimethylpropan-2-amine]", "values": [{"measurement": "immobility in forced swim test", "setting": "C57/BL6J mice", "value": "significantly reduced immobility"}]}]}
